Molecular target: T1, C-C chemokine receptor type 3 (Homo sapiens, UniProt P51677)
T1 sequence (P51677 whole entry): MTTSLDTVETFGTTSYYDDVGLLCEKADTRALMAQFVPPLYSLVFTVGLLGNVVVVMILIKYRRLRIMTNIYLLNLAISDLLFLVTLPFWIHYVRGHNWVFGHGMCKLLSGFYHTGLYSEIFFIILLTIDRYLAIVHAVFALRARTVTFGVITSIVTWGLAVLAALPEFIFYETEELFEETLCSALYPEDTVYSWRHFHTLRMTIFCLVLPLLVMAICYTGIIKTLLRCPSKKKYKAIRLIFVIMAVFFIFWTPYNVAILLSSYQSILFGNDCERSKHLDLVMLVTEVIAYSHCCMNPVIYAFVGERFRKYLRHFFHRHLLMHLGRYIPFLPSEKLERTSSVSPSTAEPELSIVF
Assay: Antagonist activity at CCR3 expressed in B300-19 cells assessed as inhibition of eotaxin-induced calcium influx
Type: functional, cell-based

| SMILES | IC50 |
| --- | --- |
| CN(C(=O)c1ccccc1)C1CCN(Cc2ccc3cc(F)ccc3c2)CC1 | 810 nM |
| O=C(NC1CCN(Cc2ccc3cc(F)ccc3c2)CC1)c1cccc(F)c1 | 670 nM |
| O=S(=O)(NC1CCN(Cc2ccc3cc(F)ccc3c2)CC1)c1ccccc1 | 830 nM |
| COc1ccc(C(=O)NC2CCN(Cc3ccc4cc(F)ccc4c3)CC2)cc1 | 2400 nM |
| O=C(NC1CCN(Cc2ccc3cc(F)ccc3c2)CC1)c1ccccc1 | 1300 nM |
| O=C(NC1CCN(Cc2ccc3cc(F)ccc3c2)CC1)c1ccccc1Oc1ccccc1 | 95 nM |
| O=C(Nc1ccccc1)C1CCN(Cc2ccc3cc(F)ccc3c2)CC1 | 1700 nM |
| O=C(NC1CCN(Cc2ccc3cc(F)ccc3c2)CC1)c1cccc(Oc2ccccc2)c1 | 1100 nM |
| COc1cccc(C(=O)NC2CCN(Cc3ccc4cc(F)ccc4c3)CC2)c1 | 3500 nM |
| O=C(NC1CCN(Cc2ccc3cc(F)ccc3c2)CC1)c1ccccc1F | 2900 nM |
| O=C(NC1CCN(C/C=C/c2ccc(F)cc2)CC1)c1ccccc1 | 3400 nM |
| Fc1ccc2cc(CN3CCC(NCc4ccccc4)CC3)ccc2c1 | 600 nM |
| COc1ccccc1C(=O)NC1CCN(Cc2ccc3cc(F)ccc3c2)CC1 | 720 nM |
| O=C(Nc1ccccc1)OC1CCN(Cc2ccc3cc(F)ccc3c2)CC1 | 4800 nM |
| CC1(NC(=O)c2ccccc2-c2ccccc2)CCN(Cc2ccc3cc(F)ccc3c2)CC1 | 2800 nM |

Molecular target: T2, C-C chemokine receptor type 3 (Homo sapiens) (UniProt P51677)
T2 sequence (whole entry): T1 sequence (P51677 whole entry)
Assay: Antagonist activity at CCR3 expressed in B300-19 cells assessed as inhibition of eotaxin-induced calcium influx at 10 uM
Type: functional, cell-based

| SMILES | inhibition |
| --- | --- |
| O=C(NC1CCN(Cc2ccc3cc(F)ccc3c2)CC1)c1ccc(-c2ccccc2)cc1 | 27% |
| O=C(NC1CCN(Cc2ccc3cc(F)ccc3c2)CC1)c1ccc(Oc2ccccc2)cc1 | 40% |
| O=C(Nc1ccccc1)NC1CCN(Cc2ccc3cc(F)ccc3c2)CC1 | 31% |

Molecular target: T3, C-C chemokine receptor type 1 (Homo sapiens) (UniProt P32246)
T3 sequence (whole entry): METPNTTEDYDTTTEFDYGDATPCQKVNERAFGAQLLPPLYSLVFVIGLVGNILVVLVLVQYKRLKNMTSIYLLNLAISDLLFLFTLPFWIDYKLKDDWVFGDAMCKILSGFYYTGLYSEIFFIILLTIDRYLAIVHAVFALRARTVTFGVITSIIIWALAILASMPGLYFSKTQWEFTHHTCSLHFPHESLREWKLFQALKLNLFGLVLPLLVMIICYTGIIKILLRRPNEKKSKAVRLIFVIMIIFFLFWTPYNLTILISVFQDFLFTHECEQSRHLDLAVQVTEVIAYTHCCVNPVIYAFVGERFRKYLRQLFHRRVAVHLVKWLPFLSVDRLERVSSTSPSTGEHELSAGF
Assay: Inhibition of CCR1 at 10 uM

| SMILES | inhibition |
| --- | --- |
| O=C(NC1C[C@@H]2CC[C@@H](C1)N2Cc1ccc2cc(F)ccc2c1)c1ccccc1-c1ccccc1 (relative stereo; 31) | 40% |

From ChEMBL document CHEMBL1143888, “Synthesis and structure-activity relationships of N-{1-[(6-fluoro-2-naphthyl)methyl]piperidin-4-yl}benzamide derivatives as novel CCR3 antagonists” (Bioorg Med Chem, 2008)
